The values that follow come from US20120129872A1, “FUSED HETEROARYL INHIBITORS OF PRO-MATRIX METALLOPROTEINASE ACTIVATION” (priority 2010, published 2012).

Experiment [1] deals with T1, full-length proMMP9(1-707) (SEQ ID NO:1), activation by catalytic MMP3 (Homo sapiens, UniProt P14780, R574P).
T1 construct: made in house; host or cells: HEK293 (transient, secreted)
Description: proMMP9/MMP3 P126 Activation Assay. Format: biochemical. Here is the method:
proMMP9/MMP3 P126 Activation Assay
The reaction volume was 50 μL. […] Reactivity of residual MMP3 towards P-126 substrate was minimal under these conditions.

Experiment [2] has as its target T2, proMMP9(20-445;ΔFnII) (SEQ ID NO:6) (Homo sapiens, UniProt P14780, DEL216-390).
T2 construct: start methionine (N); made in house; host or cells: E. coli BL21(DE3) RIL
T2 sequence (P14780 with tags, fused parts or gaps DEL216-390): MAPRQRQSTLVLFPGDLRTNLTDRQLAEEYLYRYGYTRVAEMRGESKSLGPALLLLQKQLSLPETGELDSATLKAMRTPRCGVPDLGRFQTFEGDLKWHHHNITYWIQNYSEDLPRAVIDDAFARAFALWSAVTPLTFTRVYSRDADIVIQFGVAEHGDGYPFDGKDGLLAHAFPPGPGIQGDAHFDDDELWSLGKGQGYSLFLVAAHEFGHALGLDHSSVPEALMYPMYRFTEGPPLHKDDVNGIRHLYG
Description: ThermoFluor binding assay with proMMP9(20-445;ΔFnII). Here is the method: (§1) The ThermoFluor® (TF) assay is a 384-well plate-based binding assay that measures thermal stability of proteins (Biomol Screen 2001, 6, 429-40; Biochemistry 2005, 44, 5258-66). The experiments were carried out using instruments available from Johnson & Johnson Pharmaceutical Research & Development, LLC. TF dye used in all experiments was […] (1,8-ANS) (Invitrogen: A-47).
(§2) Compounds were arranged in a pre-dispensed plate (Greiner Bio-one: 781280), wherein compounds were serially diluted in 100% DMSO across 11 columns within a series. Columns 12 and 24 were used as DMSO reference and contained no compound. For multiple compound concentration-response experiments, the compound aliquots ([…]) were robotically predispensed directly into black 384-well polypropylene PCR microplates (Abgene: TF-0384/k) using a Cartesian Hummingbird liquid handler (DigiLab, Holliston, Mass.). Following compound dispense, protein and dye solutions were added to achieve the final assay volume of 3 μL. The assay solutions were overlayed with 1 μL of silicone oil (Fluka, type DC 200: 85411) to prevent evaporation.
(§3) Assay plates were robotically loaded onto a thermostatically controlled PCR-type thermal block and then heated from 40 to 90° C. at a ramp-rate of 1° C./min for all experiments. Fluorescence was measured by continuous illumination with UV light (Hamamatsu LC6) supplied via fiber optics and filtered through a band-pass filter (380-400 nm; >60D cutoff). Fluorescence emission of the entire 384-well plate was detected by measuring light intensity using a CCD camera (Sensys, Roper Scientific) filtered to detect 500±25 nm, resulting in simultaneous and independent readings of all 384 wells. A single image with 20-sec exposure time was collected at each temperature, and the sum of the pixel intensity in a given area of the assay plate was recorded vs temperature and fit to standard equations to yield the Tm (J Biomol Screen 2001, 6, 429-40).
(§4) Thermodynamic parameters necessary for fitting compound binding for each proMMP were estimated by differential scanning calorimetry (DSC) and from ThermoFluor® data. The heat capacity of unfolding for each protein was estimated from the molecular weight and from ThermoFluor® dosing data.
ThermoFluor® with proMMP9(20-445;ΔFnII (SEQ ID NO:6)
The protein sample preparations included a desalting buffer exchange step via a PD-10 gravity column (GE Healthcare). The desalting buffer exchange was performed prior to diluting the protein to the final assay concentration of 2.8 μM proMMP9(20-445;ΔFnII) (SEQ ID NO:6). The concentration of proMMP9(20-445;ΔFnII) (SEQ ID NO:6) was determined spectrophotometrically based on a calculated extinction coefficient of ε280=39880 M^−1 cm^−1, a calculated molecular weight of 28.2 kDa, and calculated pI of 5.5. ThermoFluor® reference conditions were define as follows: 80 μg/mL (2.8 μM) proMMP9(20-445;ΔFnII) (SEQ ID NO:6), 50 μM 1,8-ANS, pH 7.0 Buffer (50 mM HEPES pH 7.0, 100 mM NaCl, 0.001% Tween-20, 2.5 mM MgCl2, 300 μM CaCl2). The thermodynamic parameters for proMMP9(20-445;ΔFnII) (SEQ ID NO:6) are as follows: Tm (° C.)=72 (+/−0.1), ΔUH(Tm) (cal mol^−1)=160000(+/−5000), ΔUS(Tm) (cal mol^−1 K^−1)=434, ΔUCp (cal mol^−1 K^−1)=2400.
A general note: Differential scanning fluorimetry follows unfolding on heating by fluorescence.

Experiment [3] deals with T3, proMMP9(67-444;ΔFnII) (SEQ ID NO:5) (Homo sapiens, UniProt P14780, DEL216-390).
T3 construct: start methionine (N); made in house; host or cells: E. coli BL21(DE3) RIL
T3 sequence (P14780 with tags, fused parts or gaps DEL216-390): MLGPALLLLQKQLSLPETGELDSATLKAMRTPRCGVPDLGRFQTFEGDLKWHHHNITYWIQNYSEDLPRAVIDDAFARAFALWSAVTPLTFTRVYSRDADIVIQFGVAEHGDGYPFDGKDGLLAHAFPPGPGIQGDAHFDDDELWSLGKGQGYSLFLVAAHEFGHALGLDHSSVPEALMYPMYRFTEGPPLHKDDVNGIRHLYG
Briefly: ThermoFluor binding assay with proMMP9(67-444;ΔFnII). Here is the method: as §1, §2, §3, §4
ThermoFluor® with proMMP9(67-444;ΔFnII (SEQ ID NO:5)
The protein sample preparations had to include a desalting buffer exchange step via a PD-10 gravity column (GE Healthcare). The desalting buffer exchange was performed prior to diluting the protein to the final assay concentration of 3.5 μM proMMP9(67-444;ΔFnII) (SEQ ID NO:5). The concentration of proMMP9(67-444;ΔFnII) (SEQ ID NO:5) was determined spectrophotometrically based on a calculated extinction coefficient of ε280=33900 M^−1 cm^−1, a calculated molecular weight of 22.6 kDa, and calculated pI of 5.20. ThermoFluor® reference conditions were defined as follows: 80 μg/mL (3.5 μM) proMMP9(67-444;ΔFnII) (SEQ ID NO:5), 50 μM 1,8-ANS, pH 7.0 Buffer (50 mM HEPES pH 7.0, 100 mM NaCl, 0.001% Tween-20, 2.5 mM MgCl2, 300 μM CaCl2). The thermodynamic parameters for proMMP9(67-444;ΔFnII) (SEQ ID NO:5) are as follows: Tm (° C.)=63 (+/−0.1), ΔUH(Tm) (cal mol^−1)=105000(+/−5000), ΔUS(Tm) (cal mol^−1 K^−1)=450, ΔuCp (cal mol^−1 K^−1)=2000.

Where a name gives a salt, the structure may show the parent alone.

T1 sequence (P14780 20-707 R574P): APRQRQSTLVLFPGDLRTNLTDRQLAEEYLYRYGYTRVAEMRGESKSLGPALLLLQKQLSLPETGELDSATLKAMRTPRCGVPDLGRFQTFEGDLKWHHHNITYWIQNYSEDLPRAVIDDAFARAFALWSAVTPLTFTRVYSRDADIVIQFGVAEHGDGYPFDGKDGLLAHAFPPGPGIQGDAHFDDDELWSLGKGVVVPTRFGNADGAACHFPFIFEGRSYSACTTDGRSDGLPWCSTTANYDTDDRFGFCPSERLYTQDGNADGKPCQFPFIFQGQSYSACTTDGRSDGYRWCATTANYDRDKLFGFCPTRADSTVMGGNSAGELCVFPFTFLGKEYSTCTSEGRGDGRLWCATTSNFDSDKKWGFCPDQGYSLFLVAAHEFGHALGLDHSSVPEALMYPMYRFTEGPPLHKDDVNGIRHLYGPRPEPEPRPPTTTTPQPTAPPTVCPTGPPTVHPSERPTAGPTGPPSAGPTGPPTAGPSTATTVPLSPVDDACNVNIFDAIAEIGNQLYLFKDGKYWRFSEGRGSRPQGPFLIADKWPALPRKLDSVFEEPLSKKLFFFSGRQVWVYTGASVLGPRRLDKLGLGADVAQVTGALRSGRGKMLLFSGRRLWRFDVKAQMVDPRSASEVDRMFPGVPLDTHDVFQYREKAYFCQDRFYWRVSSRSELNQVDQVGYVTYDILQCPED

Usually IC50 stands for the concentration needed to halve the response being measured. The low end stands for greater potency, the high end for weaker potency. Usually Kd stands for the concentration at which binding is half-saturated. A high value points to lower affinity. `CC(C)Oc1ccc(S(N)(=O)=O)cc1Nc1nc(-c2ccc3c(c2)nc(CN(C)CCN(C)C)n3C)cs1` [Example 32, 3-((4-(2-(((2-(Dimethylamino)ethyl)(methyl)amino)methyl)-1-methyl-1H-benzo[d]imidazol-5-yl)thiazol-2-yl)amino)-4-isopropoxybenzenesulfonamide•TFA] showed an IC50 in experiment [1] of 200 nM. This compound also registered a Kd in experiment [2] of 52 nM.

`COc1ccc(C(N)=O)cc1Nc1nc(-c2ccc3c(c2)ncn3C)cs1` [Example 10, 4-Methoxy-3-[4-(1-methyl-1H-benzoimidazol-5-yl)-thiazol-2-ylamino]-benzamide]: the IC50 in experiment [1] came out at 850 nM. The dissociation constant (Kd) in experiment [3] was 990 nM; in experiment [2], 320 nM.

On to `CCn1cnc2ccc(-c3csc(Nc4cc(S(N)(=O)=O)ccc4OC(C)C)n3)cc21` [Example 27, 3-[4-(3-Ethyl-3H-benzoimidazol-5-yl)-thiazol-2-ylamino]-4-isopropoxy-benzenesulfonamide•TFA], for which inhibition in experiment [1] was half-maximal at 250 nM (IC50). Besides, the Kd is 470 nM in experiment [3] and 120 nM in experiment [2].

The compound `Cn1ncc2cc(-c3csc(Nc4cc(C(N)=O)ccc4OC(F)(F)F)n3)ccc21` [Example 16, 3-[4-(1-Methyl-1H-indazol-5-yl)-thiazol-2-ylamino]-4-trifluoromethoxy-benzamide•TFA] had an IC50 in experiment [1] of about 2000 nM. For the same compound, the Kd came out at 6700 nM in experiment [3] and 270 nM in experiment [2].

Regarding `CCCn1cnc2cc(-c3csc(Nc4cc(S(N)(=O)=O)ccc4OC(C)C)n3)ccc21` [Example 26], it took 470 nM to reach half-maximal inhibition in experiment [1] (IC50). Moreover, the Kd in experiment [3] was 1000 nM; in experiment [2] it was 210 nM.

Take `Cn1cnc2cc(-c3csc(Nc4cc(S(N)(=O)=O)ccc4OC(F)(F)F)n3)ccc21` [Example 12, 3-[4-(1-Methyl-1H-benzoimidazol-5-yl)-thiazol-2-ylamino]-4-trifluoromethoxy-benzenesulfonamide]: in experiment [1], the half-maximal inhibitory concentration (IC50) was determined as 860 nM. For the same compound, the figures for the dissociation constant Kd in experiment [3] and in experiment [2] were 5300 nM and 750 nM, respectively.

For the compound `CCCn1cnc2ccc(-c3csc(Nc4cc(S(N)(=O)=O)ccc4OC(C)C)n3)cc21` [Example 19, 4-Isopropoxy-3-[4-(3-propyl-3H-benzoimidazol-5-yl)-thiazol-2-ylamino]-benzenesulfonamide•TFA], it took 460 nM to reach half-maximal inhibition in experiment [1] (IC50). The Kd in experiment [3] was 830 nM; in experiment [2], 170 nM.

The compound `CCn1cnc2cc(-c3csc(Nc4cc(S(N)(=O)=O)ccc4OC(C)C)n3)ccc21` [Example 25, 3-[4-(1-Ethyl-1H-benzoimidazol-5-yl)-thiazol-2-ylamino]-4-isopropoxy-benzenesulfonamide•TFA] had a half-inhibitory concentration (IC50) in experiment [1] of 240 nM. The values for the dissociation constant (Kd) in experiment [3] and in experiment [2] were 1600 nM and 780 nM, respectively.

For the compound `Cc1nc2ccc(-c3csc(Nc4cc(S(N)(=O)=O)ccc4OC(C)C)n3)cc2n1C` [Example 22, 3-[4-(2,3-Dimethyl-3H-benzoimidazol-5-yl)-thiazol-2-ylamino]-4-isopropoxy-benzenesulfonamide•TFA], inhibition in experiment [1] was half-maximal at 240 nM (IC50). Moreover, the Kd in experiment [3] stood at 480 nM; in experiment [2], 170 nM.

The compound `CC(C)Oc1ccc(S(N)(=O)=O)cc1Nc1nc(-c2ccc3sccc3c2)cs1` [Example 20, 3-(4-Benzo[b]thiophen-5-yl-thiazol-2-ylamino)-4-isopropoxy-benzenesulfonamide•TFA] returned an IC50 in experiment [1] of 3600 nM. Further, the dissociation constant (Kd) in experiment [3] amounted to 1200 nM; in experiment [2], 450 nM.

In experiment [1], `CCn1c(C)nc2cc(-c3csc(Nc4cc(S(N)(=O)=O)ccc4OC(C)C)n3)ccc21` [Example 17, 3-[4-(1-Ethyl-2-methyl-1H-benzoimidazol-5-yl)-thiazol-2-ylamino]-4-isopropoxy-benzenesulfonamide•HCl] gave a half-maximal inhibitory concentration (IC50) of 300 nM. For the same compound, the Kd in experiment [3] stood at 850 nM; in experiment [2] it was 212 nM.

Consider `COc1cc(C)c(C(N)=O)cc1Nc1nc(-c2ccc3c(c2)ncn3C)cs1` [Example 1, 4-Methoxy-2-methyl-5-[4-(1-methyl-1H-benzoimidazol-5-yl)-thiazol-2-ylamino]-benzamide], for which the IC50 in experiment [1] was found to be 2300 nM. In addition, the Kd in experiment [3] came out at 7500 nM; in experiment [2], 1700 nM.

In turn, `CC(C)Oc1ccc(S(N)(=O)=O)cc1Nc1nc(-c2ccc3c(cnn3C)c2)cs1` [Example 15, 4-Isopropoxy-3-[4-(1-methyl-1H-indazol-5-yl)-thiazol-2-ylamino]-benzenesulfonamide•TFA] displayed a half-inhibitory concentration (IC50) in experiment [1] of 550 nM. Moreover, the Kd came out at 280 nM in experiment [3] and 110 nM in experiment [2].

As to `CC(C)Oc1ccc(S(N)(=O)=O)cc1Nc1nc(-c2ccc3[nH]c(N)nc3c2)cs1` [Example 34, 3-((4-(2-Amino-1H-benzo[d]imidazol-5-yl)thiazol-2-yl)amino)-4-isopropoxybenzenesulfonamide•TFA], in experiment [1], the concentration for half-maximal inhibition (IC50) was found to be 150 nM. In experiment [2], the Kd is 44 nM.

In turn, `CC(C)Oc1ccc(S(N)(=O)=O)cc1Nc1nc(-c2ccc3c(c2)nc(CN(C)C)n3C)cs1` [Example 31, 3-((4-(2-((Dimethylamino)methyl)-1-methyl-1H-benzo[d]imidazol-5-yl)thiazol-2-yl)amino)-4-isopropoxybenzenesulfonamide•TFA] registered an IC50 in experiment [1] of 73 nM. This compound also returned a dissociation constant (Kd) in experiment [2] of 52 nM.

On to `CC(C)Oc1ccc(S(N)(=O)=O)cc1Nc1nc(-c2ccc3c(c2)nc(CN2CCN(C)CC2)n3C)cs1` [Example 30], for which the half-maximal inhibitory concentration (IC50) in experiment [1] worked out at 82 nM. In addition, binding in experiment [2] was put at a Kd of 87 nM.

`CC(C)Oc1ccc(S(N)(=O)=O)cc1Nc1nc(-c2ccc3[nH]c(=O)[nH]c3c2)cs1` [Example 33]: the half-maximal inhibitory concentration (IC50) in experiment [1] was found to be 170 nM. This compound also gave a Kd in experiment [2] of 82 nM.
